Entries after “also recorded” stand apart in the source; their conditions may differ. Ends that are not written are not given here.
Assays:
[1] = test system: primary cortical neuronal cultures
Protocol: Briefly, cortical tissue from E18-E19 Sprague-Dawley rats was dissociated in Dulbecco's modified Eagle medium (DMEM; Invitrogen, Australia) supplemented with 1.3 mM L-cysteine, 0.9 mM NaHCOa, 10 units/ml papain (Sigma, USA) and 50 units/ml DNase (Sigma) and washed in cold DMEM/10% horse serum. Neurons were resuspended in Neurobasal (Invitrogen) containing 2% B27 supplement (B27; Invitrogen). Before seeding, 96-well sized glass wells (6 mm diameter, ProTech, Australia) or 96-well plastic plates (ProSciTech, Australia) were coated with poly-D-lysine overnight ([…]: 50 mg/mL; 70-150 K, Sigma). […] Neurons were plated to obtain ≈10,000 viable neurons for each well on day in vitro 11-12. […] On day in vitro 4 one third of the culture medium was removed and replaced with fresh Neurobasal/2% B27 containing the mitotic inhibitor, cytosine arabinofuraNOside (1 mM final concentration; Sigma). On day in vitro 8 one half of the culture medium was replaced with Neurobasal/2% B27.
To induce excitotoxicity, 50 μl of Neurobasal/2% B27 containing glutamic acid (200 μM) or kainic acid (400 μM) or NMDA (200 μM) was added to the culture wells (100 μM glutamic acid, 200 μM kainic acid and NMDA 100 μM final concentration). Cultures were incubated at 37° C. in the CO2 incubator for 5 minutes for glutamic acid, 45 minutes for kainic acid and 10 minutes for NMDA exposure, after which time the media was replaced with 100 μl of 50% Neurobasal/2% N2 supplement (Invitrogen) and 50% balanced salt solution (BSS; see below). Cultures were incubated for a further 24 hours at 37° C. in the CO2 incubator. The untreated controls with or without glutamic acid or kainic acid treatment received the same wash steps and media additions.
Following this step, cultures were treated as described above. Untreated controls with or without glutamic acid exposure received the same wash steps and media additions. In addition, a post-glutamic acid exposure CPP treatment (5 μM) experiment was performed for the R9 peptide and the JNKI-1D-TAT control peptide.
For pre-glutamic acid exposure experiments, neurons were exposed to peptide(s) for a 10 minute period, immediately before or 1, 2, 3, 4 or 5 hours prior to glutamic acid exposure. […] At the relevant peptide pre-treatment time, media was removed and replaced with 100 μl of Neurobasal/2%. […] Following 5-minute glutamic acid exposure, neuronal culture wells were treated as described above. For all experiments untreated controls with or without glutamic acid treatment underwent the same incubation steps and media additions.
Heparin (for injection) was obtained from Pfizer (1000 IU/ml). Two different heparin experiments were performed: 1. Peptides were incubated with heparin (20 IU/ml) in Neurobasal/B27 for 5 minutes at room temperature, before addition to culture wells (50 μl) for 15 minutes at 37° C. in the CO2 incubator. Following the incubation period, media in wells was removed and replaced with 100 μl of Neurobasal/2% B27 containing glutamic acid (100 μM), and subsequently treated as described above; 2. Media in wells was replaced with Neurobasal/2% B27 containing heparin (50 μl; 40 IU/ml) and incubated for 5 minutes at 37° C. in the CO2 incubator. After the incubation period, peptides or glutamate receptor blockers (MK801/CNQX) in Neurobasal/2% B27 (50 μl) were added to the culture wells and cultures incubated for a further 10 minutes at 37° C. in the CO2 incubator. Following the incubation period, media in wells was removed and replaced with 100 μl of Neurobasal/2% B27 containing glutamic acid (100 μM), and subsequently treated as described above. For all experiments, non-heparin treated peptide controls with glutamic acid treatment underwent the same incubation steps and media additions.
Twenty-four hours after insult, neuronal cultures were examined by light microscopy for qualitative assessment of neuronal cell viability.

[2] = test system: primary cortical neuronal cultures; experiment: In vitro ischemia / oxygen-glucose deprivation (OGD) model, neurons; type: cell-based, rat; details: for neuroprotection when added for 15 minutes after OGD: FIGS. 31, 20, 22, 1 μM and 5 μM in FIG. 31
[3] = test system: permanent middle cerebral artery occlusion (MCAO) stroke model; experiment: Rat permanent middle cerebral artery occlusion (MCAO) stroke model; type: in vivo; details: 1 μmol/kg intravenously 30 min post-MCAO
Protocol: Administration of peptide (DR9: rrrrrrrrr-NH2; R12, R15, R18, protamine sulphate; protamine) or vehicle (saline: 0.9% NaCl) treatment solution was performed at 30 min post-MCAO. The peptide treatment comprised DR9 in saline (600 μl) to provide an intravenous loading dose of 1 μmol/kg or 1000 nmol/kg given over 5-6 min via the right jugular vein.
This study was approved by the Animal Ethics Committee of the University of Western Australia. Male Sprague Dawley rats weighing 270 g to 350 g were kept under controlled housing conditions with 12 hour light-dark cycle with free access to food and water. Experimental animals were fasted overnight and subjected to permanent middle cerebral artery occlusion (MCAO) as follows.
Anaesthesia was induced with 4% isoflurane and a 2:1 mix of N2O and O2 via mask. Anaesthesia was maintained at 1.7-2% isoflurane. Cerebral blood flow (CBF) was monitored continuously using laser Doppler flowmetry (Blood FlowMeter, AD Instruments, Sydney, Australia). The probe was located 1 mm caudal and 4 mm lateral (right) to the bregma. A cannula was inserted in the right femoral artery to continuously monitor blood pressure and to provide samples for blood glucose and blood gas readings. Blood glucose was measured using a glucometer (MediSense Products, Abbott Laboratories, Bedford, Mass., USA) and blood gases were measured using a blood gas analyser (ABL5, Radiometer, Copenhagen, Denmark). Blood pressure was maintained at 80-100 mmHg. During surgery, rectal temperature was maintained at 37±0.5° C. and warming applied with a fan heater when necessary. For intravenous infusions, a length of PVC line primed with heparinised saline was tied in place in the right jugular vein, then externalised through a dorsal mid-scapular incision to a tether/swivel system (Instech Laboratories, Philadelphia, USA) designed to permit free movement.
The right common carotid artery (CCA) was exposed via a ventral neck incision. […] The isolated section of the ECA was ligated and cauterised to create a stump. The carotid body was removed and the pterygopalatine artery was ligated. A 4-0 nylon monofilament with a 0.39 mm diameter silicone tip (Doccol, Redlands, Calif., USA) was inserted through the ECA stump into the CCA and advanced rostrally into the internal carotid artery (ICA) until the laser Doppler flowmetry recorded a >30% decrease from baseline of cerebral blood flow. The monofilament was secured in two places (at the base of the ECA stump and on the ICA) for the remainder of the experiment. Animals were given post-operative analgesia consisting of pethidine (3 mg/kg intramuscular) and bupivacaine (1.5 mg/kg subcutaneously) at head and leg incision sites.
Post-surgery animals were allowed to recover in a climate-controlled chamber and their core body temperature monitored and maintained at 37±0.5° C. by a cooling/heating fan when required for 3-4 hours.
Animals were sacrificed 24 hours post-MCAO with intra-peritoneal injections of sodium pentobarbitone (900 mg/kg). […] Slices were scanned and images were analysed by an operator blind to treatment status using ImageJ 3rd edition (NIH, USA). The total infarct volume was determined by adding the areas of infarcted tissue on both sides of the 2 mm sections. These measured areas were multiplied by half slice thickness (1 mm), and corrected for cerebral oedema by multiplying the ratio of affected to normal hemisphere areas. […]

[4] = test system: intracellular calcium influx in neuronal cultures; experiment: Intracellular calcium influx (Fura-2 AM) after glutamic acid; type: cell-based, rat; details: peptide 5 μM for 10 min, removed before 100 μM glutamic acid (FIG. 44)
Protocol: Fura-2 AM was used for intracellular calcium assessment. Representative fluorescent Fura-2 AM tracers; fluorescence intensity (FI) of neuronal cultures 30 sec before and following addition (arrow) of glutamic acid (100 μM final concentration). Peptides or glutamate receptor blockers were added to neuronal cultures for 10 min and removed (time 0) before glutamic acid. Values are mean±SE; n=3. Peptide concentration was 5 μM.
Briefly, cortical tissue from E18-E19 Sprague-Dawley rats was dissociated in Dulbecco's modified Eagle medium (DMEM; Invitrogen, Australia) supplemented with 1.3 mM L-cysteine, 0.9 mM NaHCOa, 10 units/ml papain (Sigma, USA) and 50 units/ml DNase (Sigma) and washed in cold DMEM/10% horse serum. Neurons were resuspended in Neurobasal (Invitrogen) containing 2% B27 supplement (B27; Invitrogen). Before seeding, 96-well sized glass wells (6 mm diameter, ProTech, Australia) or 96-well plastic plates (ProSciTech, Australia) were coated with poly-D-lysine overnight (50 ml/well: 50 mg/mL; 70-150 K, Sigma). Excess poly-D-lysine solution was then removed and replaced with Neurobasal (containing 2% B27; 4% fetal bovine serum; 1% horse serum; 62.5 mM glutamate; 25 mM 2-mercaptoethanol; and 30 mg/mL streptomycin and 30 mg/mL penicillin). Neurons were plated to obtain ≈10,000 viable neurons for each well on day in vitro 11-12. Neuronal cultures were maintained in a CO2 incubator (5% CO2, 95% air balance, 98% humidity) at 37° C. On day in vitro 4 one third of the culture medium was removed and replaced with fresh Neurobasal/2% B27 containing the mitotic inhibitor, cytosine arabinofuraNOside (1 mM final concentration; Sigma). On day in vitro 8 one half of the culture medium was replaced with Neurobasal/2% B27. Cultures were used on day in vitro 11 or 12 after which time they routinely consist of >97% neurons and 1-3% astrocytes (Meloni et al. 2001).

[5] = test system: brain endothelial cells (bEND3 cells); experiment: In vitro ischemia/OGD model, bEND3 cells; type: cell-based; details: peptide during/after ischemia (FIG. 3c) or 15 min before OGD (FIGS. 23, 24)
Protocol: The in vitro ischemia model was also used for bEND3 cells, SH-SY5Y cells, and astrocytes. For bEND3 cells anaerobic incubation was extended to 2-3 hours and upon removal from the anaerobic incubator, 60 μl of DMEM/2% FCS was added to wells. […] Upon removal from the anaerobic incubator, 60 μl of DMEM/2% FCS was added to wells.
Twenty-four hours after insult, neuronal cultures were examined by light microscopy for qualitative assessment of neuronal cell viability. Neuronal viability was quantitatively measured by 3-(4,5,dimethyliazol-2-yl)-5-(3-carboxymethoxy-phenyl)-2-(4-sulfophenyl)-2H-tetrazolium salt (MTS) assay (Promega, Australia). The MTS assay measures the cellular conversion of the tetrazolium salt to a water-soluble brown formazan salt, which is detected spectrophotometrically at 490 nm. MTS absorbance data were converted to reflect proportional cell viability relative to both the untreated and treated controls, with the untreated control taken as 100% viability, and presented as mean±SEM. For studies using astrocytes, bEND3, and SH-Y5Y cells, raw MTS data was used to generate graphs. Viability data was analysed by ANOVA, followed by post-hoc Fischer's PLSD test, with P<0.05 values considered statistically significant. Four- to six wells were used in all assays.

primary rat astrocytes = experiment: Astrocyte toxicity model; type: cell-based; details: 2.5 to 10 μM, 24 hour exposure (FIG. 43)
Protocol: A brain endothelial cell line (bEND3) and a neuroblastoma cell line (SH-SY5Y) were also used for some experiments. bEND3 and SH-SY5Y cells were cultured using standard techniques in DMEM plus 5 or 15% foetal calf serum. Rat primary astrocytes were obtained and cultured as described for cortical neurons except DMEM plus 10% foetal calf serum was used instead of Neurobasal/2% B27, and the mitotic inhibitor, cytosine arabinofuraNOside was not used.
For neuronal cultures peptides were added to culture wells (96-well plate format) by removing media and adding 100 μl of 50% Neurobasal/2% N2 supplement and 50% BSS containing CPPs, JNKI-1 D-TAT or TAT-NR2B9c. Control cultures received of 50% Neurobasal/2% N2 supplement and 50% BSS media only. Cultures were incubation at 37° C. in the CO2 incubator for 20 hours, after which time cell viability was assessed using the MTS assay. For bEND3 cultures, peptides were added to culture wells (96-well plate format) by removing media and adding 100 μl of DMEM/2% FCS containing peptide. Control cultures received 100 μl of DMEM/2% FCS only, Cultures were incubation at 37° C. in the CO2 incubator for 0.5, 1 or 2 hours, after which time cell viability was assessed using the MTS assay. […] Cultures were incubation at 37° C. in the CO2 incubator for 24 hours, after which time cell viability was assessed using the MTS assay.
Twenty-four hours after insult, neuronal cultures were examined by light microscopy for qualitative assessment of neuronal cell viability. Neuronal viability was quantitatively measured by 3-(4,5,dimethyliazol-2-yl)-5-(3-carboxymethoxy-phenyl)-2-(4-sulfophenyl)-2H-tetrazolium salt (MTS) assay (Promega, Australia). The MTS assay measures the cellular conversion of the tetrazolium salt to a water-soluble brown formazan salt, which is detected spectrophotometrically at 490 nm. MTS absorbance data were converted to reflect proportional cell viability relative to both the untreated and treated controls, with the untreated control taken as 100% viability, and presented as mean±SEM. […]

N=C(N)NCCC[C@H](NC(=O)[C@H](CCCNC(=N)N)NC(=O)[C@H](CCCNC(=N)N)NC(=O)[C@H](CCCNC(=N)N)NC(=O)[C@H](CCCNC(=N)N)NC(=O)[C@H](CCCNC(=N)N)NC(=O)[C@H](CCCNC(=N)N)NC(=O)[C@H](CCCNC(=N)N)NC(=O)[C@H](CCCNC(=N)N)NC(=O)[C@H](CCCNC(=N)N)NC(=O)[C@H](CCCNC(=N)N)NC(=O)[C@@H](N)CCCNC(=N)N)C(=O)O [Peptide R12]
neuroprotection when added immediately after glutamic acid exposure ([1]; 0 min post-insult (FIG. 1d)): highly effective | neuroprotection, milder insult ([1]; FIG. 1i, comparison at 0.5 μM and 1 μM): more effective than R9 | neuroprotection, peptide present during the 5 minute glutamic acid insult only ([1]; FIG. 28): effective | neuroprotection, 10 minute pre-exposure removed immediately prior to insult ([1]; FIG. 29, FIG. 14): effective | neuroprotection, peptide for 10 minutes, 1 to 4 hours prior to glutamic acid insult ([1]; FIG. 30): effective | effect of heparin on neuroprotective action ([1]; heparin 20 IU/ml with peptide or 40 IU/ml on cultures (FIGS. 39, 40)): blocks neuroprotective actions | IC50 ([1]; read-out: IC50: Glutamic acid model, Table 4, polyarginine peptides, from dose response graph FIG. 1e): 440 nM | neuroprotection, peptide for 10 minutes, 1 to 3 hours prior to OGD ([2]; FIG. 32): effective | neuroprotection when added for 15 minutes after OGD [2]: Neuroprotection is displayed | neuroprotection when added post-in vitro ischemia/OGD ([2]; added after anaerobic incubation until experiment end (FIGS. 3b, 16, 17)): displayed neuroprotective effects; also recorded: effective | neuroprotective activity in vivo [3]: possessed neuroprotective activity in vivo | calcium influx after glutamic acid [4]: to varying degrees reduced calcium influx

PRRRRASRRIRRRRRPRVSRRRRRGGRRRR [Ptm4]
neuroprotection (neuronal viability) ([1]; peptide 15 min prior to and during glutamic acid exposure, viability 24 h, MTS): neuroprotective | neuroprotection when added for 15 minutes after OGD [2]: neuroprotective | neuroprotection in the OGD model (overall statement) ([2]; discussion summary): neuroprotective | protection of bEND3 cells (cell death / viability after in vitro ischemia/OGD) [5]: significantly increased cell viability | protection of bEND3 cells (cell death / viability after in vitro ischemia/OGD) ([5]; listed as ptm4): protective

PRRRRRSSSRPIRRRRRPRASRRRRRGGRRRR [Ptm1]
astrocyte cell death following peptide exposure (primary rat astrocytes): did not cause significant astrocyte cell death

PRRRRSSSRPVRRRRRPRVSRRRRRRGGRRRR [Ptm5]
astrocyte cell death following peptide exposure (primary rat astrocytes): did not cause significant astrocyte cell death

VSRRRRRRGGRRRR [LMWP]
astrocyte cell death following peptide exposure (primary rat astrocytes): did not cause significant astrocyte cell death

From patent US20160250285A1, “NEUROPROTECTIVE PEPTIDES” (priority 2013, published 2016)
